According to patent publication US20060009425A1, “Oral formulations of paricalcitol” (priority 2004, published 2006):

What was measured:
[1] = test system: serum parathyroid hormone (PTH) levels; assay: Phase 3 placebo-controlled TIW study, iPTH reduction (Example 6); format: in vivo, human
From the text: Methodology: This was a Phase 3, prospective, randomized, placebo-controlled, double-blind, 24-week Treatment Phase, multi-center study in CKD (Stages 3 and 4) subjects with elevated PTH levels (≧150 pg/mL). Subjects were randomized in an equal ratio (1:1) to 1 of 2 treatment groups: Paricalcitol Capsule (Group 1) and placebo (Group 2). Potential subjects underwent procedures to determine their baseline intact PTH (iPTH), calcium, and phosphorus levels for eligibility to receive treatment.
The study was performed in 4 parts: a Screening Visit, a Pre-Treatment Phase, a Treatment Phase, and a Follow-Up Phase. At the Screening Visit, subjects reviewed and signed the informed consent form prior to the conduct of any study-specific screening procedures. A spot urine sample was used to calculate calcium/creatinine ratio. A blood sample was drawn for iPTH, blood urea nitrogen (BUN), albumin and serum creatinine levels. […] The serum creatinine, BUN, and albumin values were used to calculate the subject's estimated glomerular filtration rate (eGFR) using a formula derived from the “Modification of Diet in Renal Disease” (MDRD) study. Subjects with a calculated eGFR of 15 to 60 mL/min were eligible to undergo Pre-Treatment Phase procedures. The Pre-Treatment Phase was 1 to 4 weeks. During this phase, subjects had 2 scheduled office visits. The office visits could have occurred at any time over a 4-week period but must have been at least 1 day apart. During these visits, subjects were to meet laboratory criteria regarding serum iPTH, calcium, and phosphorus levels. If the subject was unable to meet these criteria, he or she may have been re-screened once after 4 weeks. […] Subjects who satisfied inclusion and exclusion criteria after a minimum of 1 week in the Pre-Treatment Phase were eligible to enter the Treatment Phase. During the Treatment Phase, subjects were to self-administer study drug 3 times weekly, on Monday, Wednesday and Friday, for a total of 24 weeks. The initial dose was 2 or 4 mcg (depending on baseline iPTH levels). Procedures to be performed during the Treatment Phase included vital signs, chemistry and hematology, urinary pyridinoline, urinary deoxypyridinoline, serum bone-specific alkaline phosphatase, serum osteocalcin, urinalysis, spot urine for calcium/creatinine ratio, and recording of adverse events and concurrent medications. Serum iPTH, calcium, phosphorus, and albumin were measured every 2 weeks. Dose adjustments were to be made according to these chemistry results for iPTH, calcium, and phosphorus. Doses may have been increased in 2 mcg increments every 4 weeks. Dose reductions were to occur according to a protocol-specified algorithm. However, dosing could have been adjusted any time if, in the judgment of the Investigator, a risk to subject safety existed.
Efficacy: The primary efficacy endpoint was the achievement of 2 consecutive >30% decreases from baseline iPTH levels.
The secondary efficacy analyses include change and percent change from baseline analyses in iPTH and change from baseline analyses in biochemical bone activity markers.
The Intent-To-Treat population (Full Analysis Set) was defined as all randomized subjects with a baseline iPTH and at least 2 on-treatment iPTH measurements. This population was used in the primary efficacy analysis.

[2] = human, in vivo, 24 weeks
Procedure: (§1) Additionally, safety was assessed by the incidence of adverse events, the change from baseline in chemistry, hematology and urinalysis laboratory variables, the change from baseline in subject vital signs, and progressive changes in renal function observed via changes in eGFR.
(§2) All randomized subjects who received at least 1 dose of study drug were used in safety analyses. […] This comparison was performed using a Fisher's exact test. Secondary safety analyses were performed comparing changes/percent changes from baseline between the paricalcitol and placebo treatment groups using a one-way ANOVA with treatment group as the factor for the following variables: hematology, complete chemistry, and urinalysis variables; 24-hour urine collections, eGFR, urinary calcium/creatinine ratio, cardiovascular markers, and vital signs. Secondary safety analyses also consisted of an analysis of “treatment-emergent” adverse events (i.e., adverse events with an onset date on or after the date the first dose of study drug was taken). Adverse events were summarized by body system and COSTART term according to the COSTART V adverse event-coding dictionary. Comparisons of the percentage of subjects experiencing an adverse event between the paricalcitol and placebo treatment groups were performed using a Fisher's exact test.

[3] = Phase 3 TIW study, safety (Example 6)
Procedure: as §1, §2

[4] = Phase 3 once daily study, safety (Example 8)
Procedure: as §1
All randomized subjects who received at least 1 dose of study drug were used in safety analyses.
Secondary safety analyses also consisted of an analysis of “treatment-emergent” adverse events (i.e., adverse events with an onset date on or after the date the first dose of study drug was taken). Adverse events were summarized by body system and COSTART term according to the COSTART V adverse event-coding dictionary. Comparisons of the percentage of subjects experiencing an adverse event between the Paricalcitol and placebo treatment groups were performed using a Fisher's exact test.

## C[C@H](/C=C/[C@H](C)C(C)(C)O)[C@H]1CC[C@H]2/C(=C/C=C3C[C@@H](O)C[C@H](O)C3)CCC[C@]12C [Paricalcitol, 19-nor-1α,3β,25-trihydroxy-9,10-secoergosta-5(Z); 7(E),22(E)-triene]
[1]; 26/36, exploratory analysis
  subjects with 4 consecutive ≧30% decreases from baseline in iPTH: 72%
[1]; 33/36, TIW, 24 weeks, CKD Stages 3 and 4
  subjects with 2 consecutive >30% decreases from baseline in iPTH: 92%
[1]; TIW
  30% mean reduction in iPTH occurred by: ≤ 9 Week
[1]; TIW, 24 weeks
  mean change from baseline in iPTH at the Final Visit: -58.1 pg/mL
  mean change from baseline in iPTH at the Last On-Treatment Visit: -95.7 pg/mL
  percent decrease in iPTH at the Final Visit: 19.2%
  percent decrease in iPTH at the Last On-Treatment Visit: 33.0%
[1]; observed at Week 19
  maximum decrease from baseline in iPTH: −46.0%
[2]
  adverse event incidence: viral infection: 10%
[3]; CKD (Stages 3 and 4) subjects
  safety and tolerability: safe and well tolerated
[3]; TIW, 24 weeks
  adverse events considered not related to study drug administration: 85%
  adverse events mild or moderate in severity: 88%
  subjects with treatment-emergent adverse events: 79%
[3]; Treatment and Follow-Up Phases
  subjects reporting serious adverse events: 9 subjects
[3]; cardiopulmonary arrest, considered not related to study drug
  deaths: 1 subject
[3]; in vivo
  adverse event incidence: constipation: 8%
  adverse event incidence: depression: 8%
  adverse event incidence: headache: 8%
  adverse event incidence: hypertension: 8%
  adverse event incidence: infection: 8%
  adverse event incidence: pain: 10%
  adverse event incidence: pharyngitis: 10%
  adverse event incidence: rhinitis: 8%
  adverse event incidence: vertigo: 8%
  subjects terminated prematurely due to adverse events: 1 subjects
  subjects who developed clinically meaningful hypercalcemia (at least 2 consecutive calcium values >10.5 mg/dL): 1/38
[4]; CKD (Stages 3 and 4) subjects
  safety and tolerability: safe and well tolerated
[4]; Treatment Phase
  mean calcium values, range over scheduled visits: 9.24 to 9.54 mg/dL
[4]; Treatment and Follow-Up Phases
  subjects reporting serious adverse events: 7 subjects
[4]; hepatic encephalopathy, considered not related to study drug
  deaths: 1 subject
[4]; in vivo
  adverse event incidence: abdominal pain: 9%
  adverse event incidence: accidental injury: 17%
  adverse event incidence: allergic reaction: 9%
  adverse event incidence: cough increased: 9%
  adverse event incidence: diarrhea: 11%
  adverse event incidence: edema: 11%
  adverse event incidence: nausea: 9%
  adverse event incidence: pharyngitis: 14%
  adverse event incidence: rash: 11%
  adverse event incidence: vomiting: 11%
  phosphorus, mean change from baseline to Final Visit: -0.13 mg/dL
  serum calcium, mean change from baseline to Last On-Treatment Visit: 0.21 mg/dL
  subjects terminated prematurely due to adverse events: 4 subjects
  subjects who developed clinically meaningful hypercalcemia (at least 2 consecutive calcium values >10.5 mg/dL): 0/35
[4]; once daily, 24 weeks
  adverse events considered not related to study drug administration: 67%
  adverse events mild or moderate in severity: 93%
  subjects with treatment-emergent adverse events: 91%
